SMILES strings stand for the structures.

Type in all cases: cell-based
Experiment [1] deals with PKC alpha (Homo sapiens, UniProt P17252). Nature of the experiment: Cellular assay of protein kinase C inhibition, PKC alpha. The settings on record: read-out: IC 50 PKC alpha. As to the method:
(§1) CKC was tested on a cellular assay to evaluate the protein kinase C inhibition (PKC). Four subtypes of PKC are evaluated (α, β1, β2 and δ). Table 1. Cellular assay to evaluate the action of CKC on four subtypes of PKC.

For experiment [2], the target named is PKC delta (Homo sapiens, UniProt Q05655). Briefly: Cellular assay of protein kinase C inhibition, PKC delta. Also on record: key: *: IC 50 too high to be measured by apparatus. As to the method:
as §1

For experiment [3], the target named is PKC beta 1 (Homo sapiens, UniProt P05771). Briefly: Cellular assay of protein kinase C inhibition, PKC beta 1. Also on record: key: *: IC 50 too high to be measured by apparatus. As to the method:
as §1

Experiment [4] has as its target PKC beta 2 (Homo sapiens, UniProt P05771). Briefly: Cellular assay of protein kinase C inhibition, PKC beta 2. Also on record: key: *: IC 50 too high to be measured by apparatus. As to the method:
as §1

PKC beta 1, sequence (P05771 whole entry): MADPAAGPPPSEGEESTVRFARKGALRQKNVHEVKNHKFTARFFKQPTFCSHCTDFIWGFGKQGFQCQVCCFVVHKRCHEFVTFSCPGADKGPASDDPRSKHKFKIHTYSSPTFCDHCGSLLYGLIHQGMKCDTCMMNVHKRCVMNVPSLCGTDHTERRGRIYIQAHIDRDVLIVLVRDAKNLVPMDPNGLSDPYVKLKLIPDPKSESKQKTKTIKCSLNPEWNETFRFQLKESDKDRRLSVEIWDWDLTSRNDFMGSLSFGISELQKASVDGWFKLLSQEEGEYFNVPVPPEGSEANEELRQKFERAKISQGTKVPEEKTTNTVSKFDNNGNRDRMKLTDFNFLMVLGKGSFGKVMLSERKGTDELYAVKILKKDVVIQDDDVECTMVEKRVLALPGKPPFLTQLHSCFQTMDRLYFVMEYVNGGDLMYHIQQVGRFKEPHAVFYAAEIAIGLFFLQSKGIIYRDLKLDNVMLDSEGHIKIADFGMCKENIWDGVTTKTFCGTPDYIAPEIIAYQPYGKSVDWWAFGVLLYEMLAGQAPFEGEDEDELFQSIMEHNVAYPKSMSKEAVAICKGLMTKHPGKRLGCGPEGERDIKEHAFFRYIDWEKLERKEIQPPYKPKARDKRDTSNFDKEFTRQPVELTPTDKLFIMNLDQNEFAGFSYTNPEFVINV
PKC beta 2, sequence (P05771 1-673 isoform P05771-2): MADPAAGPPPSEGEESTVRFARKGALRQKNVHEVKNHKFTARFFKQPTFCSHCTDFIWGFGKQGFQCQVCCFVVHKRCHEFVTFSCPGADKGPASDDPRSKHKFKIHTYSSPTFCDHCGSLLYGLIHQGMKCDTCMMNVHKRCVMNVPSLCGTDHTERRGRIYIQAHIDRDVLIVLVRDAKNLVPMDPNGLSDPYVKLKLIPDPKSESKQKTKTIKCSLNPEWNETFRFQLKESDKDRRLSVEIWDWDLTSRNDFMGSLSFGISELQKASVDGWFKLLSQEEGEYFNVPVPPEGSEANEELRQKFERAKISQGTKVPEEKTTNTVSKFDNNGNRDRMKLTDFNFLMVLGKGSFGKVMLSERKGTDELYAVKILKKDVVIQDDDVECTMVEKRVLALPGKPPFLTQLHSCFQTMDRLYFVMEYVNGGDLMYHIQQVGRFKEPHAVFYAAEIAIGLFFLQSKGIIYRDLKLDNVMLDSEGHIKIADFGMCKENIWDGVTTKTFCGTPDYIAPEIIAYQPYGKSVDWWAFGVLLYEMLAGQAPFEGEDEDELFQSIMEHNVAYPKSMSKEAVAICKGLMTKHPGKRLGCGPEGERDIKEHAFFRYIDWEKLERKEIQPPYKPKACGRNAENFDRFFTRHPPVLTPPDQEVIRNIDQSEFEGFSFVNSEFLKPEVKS
PKC delta, sequence (Q05655 whole entry): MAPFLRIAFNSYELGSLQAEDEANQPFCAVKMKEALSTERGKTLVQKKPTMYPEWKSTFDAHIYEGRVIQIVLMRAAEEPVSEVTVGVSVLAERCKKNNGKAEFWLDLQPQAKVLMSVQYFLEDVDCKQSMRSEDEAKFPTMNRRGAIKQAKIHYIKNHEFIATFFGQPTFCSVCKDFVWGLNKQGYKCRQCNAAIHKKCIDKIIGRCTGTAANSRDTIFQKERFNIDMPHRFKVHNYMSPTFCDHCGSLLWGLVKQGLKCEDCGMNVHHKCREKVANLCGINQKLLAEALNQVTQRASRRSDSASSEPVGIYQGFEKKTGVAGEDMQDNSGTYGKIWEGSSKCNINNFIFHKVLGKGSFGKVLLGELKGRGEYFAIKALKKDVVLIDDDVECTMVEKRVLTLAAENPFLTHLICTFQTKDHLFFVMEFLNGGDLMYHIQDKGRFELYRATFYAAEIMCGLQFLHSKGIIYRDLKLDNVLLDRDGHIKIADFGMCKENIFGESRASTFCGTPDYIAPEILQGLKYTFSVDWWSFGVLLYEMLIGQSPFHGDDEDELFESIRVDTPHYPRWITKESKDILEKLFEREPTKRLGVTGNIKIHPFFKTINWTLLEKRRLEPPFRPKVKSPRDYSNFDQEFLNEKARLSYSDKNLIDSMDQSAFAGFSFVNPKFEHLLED

Take `CCCCCCCCCCCCCCCC[N+](C)(C)Cc1ccccc1` [CKC, cetalkonium chloride]: in experiment [1], the IC50 is 4.29 µM. In addition, the “IC 50 PKC delta” value in experiment [2] was “*”. The “IC 50 PKC beta 1” value in experiment [3] was “*”. Also, the “IC 50 PKC beta 2” value in experiment [4] is listed as “*”.

The record behind these values is patent EP3011959A1, “Quaternary ammonium compound for use as an inhibitor of protein kinase C alpha” (Santen SAS, priority 2014, dated 2016).
